# Source: ChEMBL document CHEMBL2390830 (Eur J Med Chem, 2013)
# Where a name gives a salt, the structure may show the parent alone.
# Legend:
# [1] = biological target: T1, 5-hydroxytryptamine receptor 1A (Rattus norvegicus, UniProt P19327); experiment: Displacement of [3H]8-OH-DPAT from 5-HT1A receptor in Wistar rat cerebral hippocampus membrane after 10 mins; format: tissue-based; conditions: read-out: Ki(app)
# T1 sequence (P19327 whole entry): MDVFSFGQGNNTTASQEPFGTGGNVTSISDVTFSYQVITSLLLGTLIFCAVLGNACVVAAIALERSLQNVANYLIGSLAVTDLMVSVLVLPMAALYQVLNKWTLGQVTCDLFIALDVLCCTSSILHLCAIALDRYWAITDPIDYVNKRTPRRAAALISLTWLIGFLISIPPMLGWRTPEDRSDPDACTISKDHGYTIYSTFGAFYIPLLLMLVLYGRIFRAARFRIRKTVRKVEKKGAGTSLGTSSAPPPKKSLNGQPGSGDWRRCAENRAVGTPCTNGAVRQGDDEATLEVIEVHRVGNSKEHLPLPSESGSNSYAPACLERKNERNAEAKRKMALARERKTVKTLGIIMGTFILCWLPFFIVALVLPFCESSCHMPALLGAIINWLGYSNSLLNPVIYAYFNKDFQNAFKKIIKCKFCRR
# [2] = Binding affinity to human PCP receptor by radioligand displacement assay
# [3] = Binding affinity to somatostatin receptor (unknown origin) by radioligand displacement assay; set-up: species or system Homo sapiens
# [4] = biological target: T2, 5-hydroxytryptamine receptor 2C (Homo sapiens, UniProt P28335); experiment: Binding affinity to human 5-HT2C receptor by radioligand displacement assay
# T2 sequence (P28335 whole entry): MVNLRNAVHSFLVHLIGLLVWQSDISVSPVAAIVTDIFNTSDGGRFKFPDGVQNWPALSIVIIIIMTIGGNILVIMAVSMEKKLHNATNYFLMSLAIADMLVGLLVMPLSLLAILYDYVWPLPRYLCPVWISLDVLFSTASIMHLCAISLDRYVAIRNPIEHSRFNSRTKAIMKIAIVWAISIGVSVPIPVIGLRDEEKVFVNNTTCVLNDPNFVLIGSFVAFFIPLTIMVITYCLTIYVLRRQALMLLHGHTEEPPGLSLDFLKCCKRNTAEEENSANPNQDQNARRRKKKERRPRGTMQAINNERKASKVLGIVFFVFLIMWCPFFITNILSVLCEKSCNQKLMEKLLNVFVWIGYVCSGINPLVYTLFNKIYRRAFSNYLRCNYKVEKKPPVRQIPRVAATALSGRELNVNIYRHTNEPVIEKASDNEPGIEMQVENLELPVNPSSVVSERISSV
# [5] = Binding affinity to P2X receptor (unknown origin) by radioligand displacement assay; set-up: species or system Homo sapiens
# [6] = biological target: Voltage-gated L-type calcium channel (Homo sapiens, UniProt Q13936+Q13698+Q01668+O60840); experiment: Binding affinity to L-Ca2+ channel verapamil site (unknown origin) by radioligand displacement assay
# [7] = Binding affinity to peripheral BZD receptor (unknown origin) by radioligand displacement assay; set-up: species or system Homo sapiens
# [8] = Binding affinity to GABA-gated chloride channel (unknown origin) by radioligand displacement assay; set-up: species or system Homo sapiens
# [9] = Binding affinity to P2Y receptor (unknown origin) by radioligand displacement assay; set-up: species or system Homo sapiens
# [10] = Binding affinity to human PACAP receptor by radioligand displacement assay
# [11] = biological target: T3, Muscarinic acetylcholine receptor M5 (Homo sapiens, UniProt P08912); experiment: Binding affinity to human muscarinic M5 receptor by radioligand displacement assay
# T3 sequence (P08912 whole entry): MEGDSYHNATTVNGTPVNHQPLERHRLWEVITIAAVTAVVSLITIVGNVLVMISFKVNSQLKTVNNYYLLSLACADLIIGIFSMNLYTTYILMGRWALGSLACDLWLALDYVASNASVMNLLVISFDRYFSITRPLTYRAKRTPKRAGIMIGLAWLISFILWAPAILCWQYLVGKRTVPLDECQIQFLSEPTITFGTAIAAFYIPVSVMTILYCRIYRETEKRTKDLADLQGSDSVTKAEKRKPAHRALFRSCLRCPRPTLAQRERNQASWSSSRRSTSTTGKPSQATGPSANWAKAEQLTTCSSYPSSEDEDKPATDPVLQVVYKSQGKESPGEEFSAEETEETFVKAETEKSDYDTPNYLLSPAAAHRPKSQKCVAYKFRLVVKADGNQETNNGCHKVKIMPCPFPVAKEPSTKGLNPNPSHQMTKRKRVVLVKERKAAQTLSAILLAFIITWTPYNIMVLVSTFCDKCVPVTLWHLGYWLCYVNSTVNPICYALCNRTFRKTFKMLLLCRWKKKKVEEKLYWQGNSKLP
# [12] = Binding affinity to sodium channel site 2 (unknown origin) by radioligand displacement assay; set-up: species or system Homo sapiens
smiles,measurement,setting,value
COc1ccccc1N1CCN(CCCCN2Cc3ccc4ccccc4c3C2=O)CC1,Ki,[1],13 nM
COc1ccccc1N1CCN(CCCN2Cc3nc4ccccc4cc3C2=O)CC1,Ki,[1],104 nM
COc1ccccc1N1CCN(CCCCN2Cc3c(Cl)nc4ccccc4c3C2=O)CC1,Ki,[1],17 nM
COc1ccccc1N1CCN(CCCCN2Cc3nc4ccccc4cc3C2=O)CC1,Ki,[1],15 nM
C[C@]12N[C@H](Cc3ccccc31)c1ccccc12 [DIZOCILPINE MALEATE],IC50,[2],4.3 nM
same,Ki,[2],2.4 nM
C[C@H](N)C(=O)NCC(=O)N[C@H]1CSSC[C@@H](C(=O)O)NC(=O)[C@H](CO)NC(=O)[C@H]([C@@H](C)O)NC(=O)[C@H](Cc2ccccc2)NC(=O)[C@H]([C@@H](C)O)NC(=O)[C@H](CCCCN)NC(=O)[C@H](Cc2c[nH]c3ccccc23)NC(=O)[C@H](Cc2ccccc2)NC(=O)[C@H](Cc2ccccc2)NC(=O)[C@H](CC(N)=O)NC(=O)[C@H](CCCCN)NC1=O [SOMATOSTATIN],IC50,[3],0.33 nM
same,Ki,[3],0.2 nM
COc1ccccc1N1CCN(CCCN2Cc3ccc4ccccc4c3C2=O)CC1,Ki,[1],46 nM
"COc1cc(OC)c(C(=O)CCCCN2CCC3(CC2)NC(=O)NC3=O)cc1NS(=O)(=O)c1ccc(C(F)(F)F)cc1 [RS-102,221]",IC50,[4],2.7 nM
same,Ki,[4],0.91 nM
O=C1c2c(ccc3ccccc23)CN1CCCCCN1CCN(c2cccc(Cl)c2Cl)CC1,Ki,[1],490 nM
O=C1c2c(c(Cl)nc3ccccc23)CN1CCCCCN1CCN(c2cccc(Cl)c2Cl)CC1,Ki,[1],878 nM
Nc1ncnc2c1ncn2[C@@H]1O[C@H](COP(=O)(O)CP(=O)(O)OP(=O)(O)O)[C@@H](O)[C@H]1O [DIPHOSPHOMETHYLPHOSPHONIC ACID ADENOSYL ESTER],IC50,[5],2.1 nM
same,Ki,[5],0.97 nM
O=C1c2c(ccc3ccccc23)CN1CCCCN1CCN(c2cccc(Cl)c2Cl)CC1,Ki,[1],31 nM
COc1ccc(CCN(C)CCCC(C#N)(c2cc(OC)c(OC)c(OC)c2)C(C)C)cc1OC (centres undefined) [GALLOPAMIL],IC50,[6],1.1 ×10⁻⁸ M
same,Ki,[6],5.4 ×10⁻⁹ M
CCC(C)N(C)C(=O)c1cc2ccccc2c(-c2ccccc2Cl)n1 (centres undefined) [PK-11195],IC50,[7],0.99 nM
same,Ki,[7],0.89 nM
C=C(C)[C@@H]1[C@H]2OC(=O)[C@@H]1[C@]1(O)C[C@H]3O[C@]34C(=O)O[C@H]2[C@]14C [PICROTOXININ],IC50,[8],120 nM
same,Ki,[8],96 nM
Nc1ncnc2c1ncn2[C@H]1C[C@H](O)[C@@H](COP(O)(=S)OP(=O)(O)OP(=O)(O)O)O1 (some centres undefined),IC50,[9],45 nM
same,Ki,[9],23 nM
O=C1c2c(c(Cl)nc3ccccc23)CN1CCCCN1CCN(c2cccc(Cl)c2Cl)CC1,Ki,[1],31 nM
CC[C@H](C)[C@H](NC(=O)CNC(=O)[C@H](CC(=O)O)NC(=O)[C@H](CO)NC(=O)[C@@H](N)Cc1cnc[nH]1)C(=O)N[C@@H](Cc1ccccc1)C(=O)N[C@H](C(=O)N[C@@H](CC(=O)O)C(=O)N[C@@H](CO)C(=O)N[C@@H](Cc1ccc(O)cc1)C(=O)N[C@@H](CO)C(=O)N[C@@H](CCCNC(=N)N)C(=O)N[C@@H](Cc1ccc(O)cc1)C(=O)N[C@@H](CCCNC(=N)N)C(=O)N[C@@H](CCCCN)C(=O)N[C@@H](CCC(N)=O)C(=O)N[C@@H](CCSC)C(=O)N[C@@H](C)C(=O)N[C@H](C(=O)N[C@@H](CCCCN)C(=O)N[C@@H](CCCCN)C(=O)N[C@@H](Cc1ccc(O)cc1)C(=O)N[C@@H](CC(C)C)C(=O)N[C@@H](C)C(=O)N[C@@H](C)C(=O)N[C@H](C(=O)N[C@@H](CC(C)C)C(=O)NCC(=O)N[C@@H](CCCCN)C(=O)N[C@@H](CCCNC(=N)N)C(=O)N[C@@H](Cc1ccc(O)cc1)C(=O)N[C@@H](CCCCN)C(=O)N[C@@H](CCC(N)=O)C(=O)N[C@@H](CCCNC(=N)N)C(=O)N[C@H](C(=O)N[C@@H](CCCCN)C(=O)N[C@@H](CC(N)=O)C(=O)N[C@@H](CCCCN)C(N)=O)C(C)C)C(C)C)C(C)C)[C@@H](C)O,IC50,[10],0.057 nM
same,Ki,[10],0.049 nM
C[N+]1(C)CCC(OC(=O)C(c2ccccc2)c2ccccc2)CC1 [4-DAMP],IC50,[11],0.45 nM
same,Ki,[11],0.22 nM
COc1ccc(C(=O)O[C@H]2CC[C@@]3(C)[C@@H]4CC[C@H]5[C@]6(O)C[C@H](O)[C@@]7(O)[C@@H](CN8C[C@@H](C)CC[C@H]8[C@@]7(C)O)[C@]6(O)C[C@@]53O[C@]24O)cc1OC [VERATRIDINE],IC50,[12],5200 nM
same,Ki,[12],4700 nM
O=C1c2cc3ccccc3nc2CN1CCCCCN1CCN(c2cccc(Cl)c2Cl)CC1,Ki,[1],58 nM
O=C1c2cc3ccccc3nc2CN1CCCCN1CCN(c2cccc(Cl)c2Cl)CC1,Ki,[1],30 nM
COc1ccccc1N1CCN(CCCCCN2Cc3nc4ccccc4cc3C2=O)CC1,Ki,[1],20 nM
